# Laboratory results taken from patent US20180106782A1, “HIGH THROUGHPUT CARDIOTOXICITY SCREENING PLATFORM” (The Board of Trustees of the Leland Stanford Junior …, priority 2016, published 2018).
# Tested on: μpatterned hiPSC-CMs
# Assay: cell movement from brightfield videos of beating μpatterned hiPSC-CMs (cross-correlation within ROI)
# Assay type: cell-based, human
# Conditions: for aδ (temporal asynchronicity) / d (displacement) / VR (peak velocity of relaxation) / VC (peak velocity of contraction) / aθ (spatial asynchronicity): brightfield, single cell
# Protocol: We imaged the movement of beating hiPSC-CMs and the displacement of fluorescent microbeads embedded in polyacrylamide substrates with a Zeiss Axiovert 200M inverted microscope equipped with a Zeiss Axiocam MRm CCD camera. This microscope also contained an environmental chamber (PeCon) to set temperature at 37° C. Unless otherwise noted, we acquired microscopy videos while electrically pacing hiPSC-CMs with 10 ms-wide bipolar pulses of electric-field stimulation at 10-15 V with a frequency of 1 Hz (Myopacer, lonOptix). To induce contractile changes in hiPSC-CMs, we added drugs known to affect CM contractile machinery to the culture medium. We analyzed the mechanical output of cells after adding drugs. […] We exposed single cells to concentrations of 0.1 μM and then 1 μM of isoproterenol (Sigma, Saint Louis, Mo.) to test how the contractile activity of each cell varied after adding different amounts of isoproterenol to the medium. Omecamtiv mecarbil (Adooq Bioscience, Irvine, Calif.) was also added to the cell culture medium at 10 nM or 0.1 μM to detect different variations in the contractile response of hiPSC-CMs after adding one of these concentrations. We acquired videos of single beating hiPSC-CMs imaged with differential interference contrast microscopy at frame rates higher than 30 fps for a time between 4 and 10 s. We used MATLAB (R2014b version, Mathworks) to convert pixels of each frame to microns. Zeiss files (.czi) contained information on the pixel dimensions and were imported into MATLAB using the Bioformats package. ([…] 2010) We also confirmed the software calibration with calibration slides (Electron Microscopy Sciences). For each video of a beating single cell, we selected a region of interest (ROI) around the borders of the cell and analyzed average displacements within this ROI (FIG. 1B). For this purpose, we selected a baseline frame, within all the frames of the video, which represented the relaxed state of the cell and calculated average displacement within the ROI for the remaining frames relative to the baseline frame. As noted bellow, this procedure was automated. We then calculated displacements from microscopy videos with cross-correlation approaches: digital image correlation (DIC) and particle image velocimetry (PIV) approaches. […] Cross-correlation is done between sub-blocks of the image and the highest correlation indicates the maximum likelihood that blocks match. We tested the following cross-correlation algorithms: PIVIab, ImageJ PIV (Tseng 2012) and Ncorr. PIVIab and Ncorr were written in MATLAB, while ImageJ PIV is a plugin for ImageJ (NIH). Ncorr generally performs better, but uses more computational time. (Blaber 2015) We measured two parameters of asynchronicity of contractile movement within the ROI: spatial asynchronicity (aθ) of contractile movement and temporal asynchronicity (aδ) of contractile movement. Spatial synchronicity occurs when the different regions of the cell move along the same directions and temporal synchronicity occurs when all the regions of the cell move at the same time. To calculate aθ, we first computed the direction of movement (θ) for every movement vector of different regions i inside the ROI (FIG. 1B) at each frame as defined by For the calculation of aδ, we first determined the mean offset time b between the peaks of the displacement curves of different regions i (dcurrent) in the ROI and the peaks of the mean displacement ([…] occurs within the same ROI by mean, cross-correlation between the two curves, then refined this offset result using main peaks only (FIG. 8A): […]
smiles,measurement,setting,value
CC(C)NCC(O)c1ccc(O)c(O)c1 (centres unmarked) [isoproterenol],aδ (temporal asynchronicity),"ISO 0.1 (μM per FIG. 4), no ISO: 0.01",0.02 s
same,d (displacement),"ISO 0.1 (μM per FIG. 4), no ISO: 1.09",1.3 μm
same,VR (peak velocity of relaxation),"ISO 0.1 (μM per FIG. 4), no ISO: 3.78",5.37 μm/s
same,VC (peak velocity of contraction),"ISO 0.1 (μM per FIG. 4), no ISO: 6.85",9.3 μm/s
same,aθ (spatial asynchronicity),"ISO 0.1 (μM per FIG. 4), no ISO: 31.4",75.5 °
same,aδ (temporal asynchronicity),"ISO 1 (μM per FIG. 4), no ISO: 0.01",0.02 s
same,d (displacement),"ISO 1 (μM per FIG. 4), no ISO: 1.09",0.68 μm
same,VR (peak velocity of relaxation),"ISO 1 (μM per FIG. 4), no ISO: 3.78",3.65 μm/s
same,VC (peak velocity of contraction),"ISO 1 (μM per FIG. 4), no ISO: 6.85",5.34 μm/s
same,aθ (spatial asynchronicity),"ISO 1 (μM per FIG. 4), no ISO: 31.4",25.3 °
same,"variations of d, VC, VR, t̂ from brightfield videos between isoproterenol concentrations","six cells, 0.1 and 1 μM isoproterenol (FIG. 9)",did not yield differences in variations of parameters with statistical significance
COC(=O)N1CCN(Cc2cccc(NC(=O)Nc3ccc(C)nc3)c2F)CC1 [omecamtiv mecarbil],acute dmax from brightfield videos,"0.1 μM omecamtiv mecarbil, single cell (FIG. 6H)",considerable acute increase
same,"absolute values of VC and VR from brightfield videos, acute","0.1 μM omecamtiv mecarbil, single cell (FIG. 6I)",increase
same,aδ (temporal asynchronicity),"OM 0.1 μM (FIG. 6), row 'acute', no OM: 0.03",0.21 s
same,d (displacement),"OM 0.1 μM (FIG. 6), row 'acute', no OM: 0.79",0.18 μm
same,VR (peak velocity of relaxation),"OM 0.1 μM (FIG. 6), row 'acute', no OM: 2.87",0.54 μm/s
same,VC (peak velocity of contraction),"OM 0.1 μM (FIG. 6), row 'acute', no OM: 3.53",0.71 μm/s
same,aθ (spatial asynchronicity),"OM 0.1 μM (FIG. 6), row 'acute', no OM: 44.5",70.1 °
same,aδ (temporal asynchronicity),"OM 0.1 μM (FIG. 6), row 'chronic', no OM: 0.03",0.04 s
same,d (displacement),"OM 0.1 μM (FIG. 6), row 'chronic', no OM: 0.79",1.05 μm
same,VR (peak velocity of relaxation),"OM 0.1 μM (FIG. 6), row 'chronic', no OM: 2.87",3.42 μm/s
same,VC (peak velocity of contraction),"OM 0.1 μM (FIG. 6), row 'chronic', no OM: 3.53",4.35 μm/s
same,aθ (spatial asynchronicity),"OM 0.1 μM (FIG. 6), row 'chronic', no OM: 44.5",68.8 °
